Measured values as given in patent publication US20160264570A1, “METHOD OF BLOCKING TRANSMISSION OF MALARIAL PARASITE” (THE UNITED STATES OF AMERICA, AS REPRESENTED BY THE …, priority 2013, published 2016).
Read-outs that look alike come from different tables or passages of the source.

How the values were obtained:
[1] = tested on: Asexual parasites of P. falciparum strain 3D7; experiment: SYBR Green viability assay on asexual parasites; type: cell-based, Plasmodium falciparum; conditions: for EC50: read-out: Activity against asexual parasites EC50
[2] = tested on: P. falciparum strain 3D7 gametocytes; experiment: alamarBlue gametocyte viability assay, strain 3D7
[3] = read-out: Gametocytocidal activity EC50, Table 6
[4] = Plasmodium falciparum, 3D7, Table 7
[5] = Plasmodium falciparum, 3D7, read-out: Gametocytocidal activity EC50, Table 7

Structure (SMILES)	EC50 ([1]; Table 6) [nM]	EC50 [2, 3] [nM]	other results
CC(=O)c1cccc(-c2ccc3ncc4ccc(=O)n(-c5cccc(C(F)(F)F)c5)c4c3c2)c1	352	1240	
O=c1ccc2cnc3ccc(-c4ccc5[nH]ncc5c4)cc3c2n1-c1cccc(C(F)(F)F)c1	64	74	
O=c1ccc2cnc3ccc(-c4ccc5[nH]cnc5c4)cc3c2n1-c1cccc(C(F)(F)F)c1	37	96	
O=c1ccc2cnc3ccc(-c4ccc5[nH]ccc5c4)cc3c2n1-c1cccc(C(F)(F)F)c1	191	325	
O=c1ccc2cnc3ccc(-c4ccncc4)cc3c2n1-c1cccc(C(F)(F)F)c1	92	246	
O=C1NCc2cc(-c3ccc4ncc5ccc(=O)n(-c6cccc(C(F)(F)F)c6)c5c4c3)ccc21	517	1790	
O=c1ccc2cnc3ccc(-c4ccc(O)nc4)cc3c2n1-c1cccc(C(F)(F)F)c1	187	262	
Nc1ccc(-c2ccc3ncc4[nH]c(=O)n(-c5cccc(C(F)(F)F)c5)c4c3c2)cc1			EC50 [1, 4]: 153 nM; EC50 [2, 5]: 630 nM
Cc1ccc(C(F)(F)F)cc1-n1c(=O)ccc2cnc3ccc(-c4ccc(N)nc4)cc3c21	44	65	
Cc1nc(N)ncc1-c1ccc2ncc3ccc(=O)n(-c4cccc(C(F)(F)F)c4)c3c2c1	1150	2260	
O=c1ccc2cnc3ccc(-c4cncc(Cl)c4)cc3c2n1-c1cccc(C(F)(F)F)c1	3590	8800	
Nc1ccc(-c2ccc3ncc4ccc(=O)n(CC5CCNCC5)c4c3c2)cn1	6440	11500	
Cc1ccc(-c2ccc3ncc4ccc(=O)n(-c5cccc(C(F)(F)F)c5)c4c3c2)cc1	372	794	
Nc1ccc(-c2ccc3ncc4ccc(=O)n(C5CCOCC5)c4c3c2)cn1	1340	41	
O=c1ccc2cnc3ccc(-c4cn[nH]c4)cc3c2n1-c1cccc(C(F)(F)F)c1	131	246	
C=Cc1ccc2ncc3ccc(=O)n(-c4cccc(C(F)(F)F)c4)c3c2c1	3240	4900	
Nc1ccc(-c2ccc3ncc4ccc(=O)n(-c5cccc(Oc6ccccc6)c5)c4c3c2)cn1	1670	2430	
O=c1ccc2cnc3ccc(C4=CCNCC4)cc3c2n1-c1cccc(C(F)(F)F)c1	15700	18400	
CN(C)c1cccc(-c2ccc3ncc4ccc(=O)n(-c5cccc(C(F)(F)F)c5)c4c3c2)c1	3250	3290	
O=c1ccc2cnc3ccc(-c4cccc(C(F)(F)F)c4)cc3c2n1-c1cccc(C(F)(F)F)c1	4200	3380	

Structure (SMILES)	EC50 ([1]; Table 6) [nM]	EC50 [2, 3] [nM]	other results
CC(=O)Nc1ccc(-c2ccc3ncc4[nH]c(=O)n(-c5cccc(C(F)(F)F)c5)c4c3c2)cn1			EC50 [1, 4]: 35 nM; EC50 [2, 5]: 123 nM
Cn1c(=O)n(-c2cccc(C(F)(F)F)c2)c2c3cc(-c4ccc(C(N)=O)nc4)ccc3ncc21			EC50 [1, 4]: 8 nM; EC50 [2, 5]: 43 nM
O=c1[nH]c2cnc3ccc(-c4cccnc4)cc3c2n1-c1cccc(C(F)(F)F)c1			EC50 [1, 4]: 1400 nM; EC50 [2, 5]: 5570 nM
Cn1c(=O)n(-c2cccc(C(F)(F)F)c2)c2c3cc(-c4cccc(N)c4)ccc3ncc21			EC50 [1, 4]: 16 nM; EC50 [2, 5]: 69 nM
O=C(c1ccc(-c2ccc3ncc4ccc(=O)n(-c5cccc(C(F)(F)F)c5)c4c3c2)cc1)N1CCNCC1	7870	5570	
Cc1ccc(-c2ccc3ncc4ccc(=O)n(-c5cccc(C(F)(F)F)c5)c4c3c2)cn1	33	65	
CN(C)c1ncc(-c2ccc3ncc4ccc(=O)n(-c5cccc(C(F)(F)F)c5)c4c3c2)cn1	1950	3130	
Cn1c(=O)n(-c2cccc(C(F)(F)F)c2)c2c3cc(-c4cccc(C#N)c4)ccc3ncc21 [drawing 455]			EC50 ([1]; Table 7): 546 nM; EC50 ([2]; read-out: Gametocytocidal activity EC50, Table 7): 2820 nM
Nc1ccc(-c2ccc3ncc4ccc(=O)n(C5CCNCC5)c4c3c2)cn1	2370	2800	
O=c1ccc2cnc3ccc(Br)cc3c2n1-c1cccc(C(F)(F)F)c1	5580	4950	
CCC(=O)N1CCN(c2ccc(-n3c(=O)ccc4cnc5ccc(-c6cnc7ccccc7c6)cc5c43)cc2C(F)(F)F)CC1 [Torin 1, reference compound]			times less potent than Torin 2 against asexual parasites [1]: 78 times; IC50 ([1]; read-out: IC50 in viability assay using asexual parasites): 215 nM; IC50 ([2]; read-out: IC50 against 3D7 gametocytes): 1600 nM
O=c1ccc2cnc3ccc(-c4ccc5c(c4)OCC5)cc3c2n1-c1cccc(C(F)(F)F)c1	2240	3310	
Cn1c(=O)n(-c2cccc(C(F)(F)F)c2)c2c3cc(-c4cnc(N)nc4)ccc3ncc21			EC50 [1, 4]: 7 nM; EC50 [2, 5]: 31 nM
CS(=O)(=O)c1ccc(-c2ccc3ncc4ccc(=O)n(-c5cccc(C(F)(F)F)c5)c4c3c2)cc1	266	491	
O=c1ccc2cnc3ccc(-c4ccc(Cl)cc4)cc3c2n1-c1cccc(C(F)(F)F)c1	253	673	
O=c1ccc2cnc3ccc(-c4ccc5sccc5c4)cc3c2n1-c1cccc(C(F)(F)F)c1	1640	3210	
NCc1ccc2ncc3ccc(=O)n(-c4cccc(C(F)(F)F)c4)c3c2c1	163	281	
CNC(=O)c1ccc(-c2ccc3ncc4ccc(=O)n(-c5cccc(C(F)(F)F)c5)c4c3c2)cc1	17	61	
Cn1ccc2cc(-c3ccc4ncc5ccc(=O)n(-c6cccc(C(F)(F)F)c6)c5c4c3)ccc21	2090	3260	
NC(=O)c1ccc(-c2ccc3ncc4[nH]c(=O)n(-c5cccc(C(F)(F)F)c5)c4c3c2)cc1			EC50 [1, 4]: 45 nM; EC50 [2, 5]: 227 nM

Structure (SMILES)	EC50 ([1]; Table 6) [nM]	EC50 [2, 3] [nM]	other results
CCOc1cccc(-n2c(=O)ccc3cnc4ccc(-c5ccc(N)nc5)cc4c32)c1	683	912	
O=c1ccc2cnc3ccc(-c4ccc5nonc5c4)cc3c2n1-c1cccc(C(F)(F)F)c1	1720	4520	
O=c1[nH]c2cnc3ccc(-c4ccncc4)cc3c2n1-c1cccc(C(F)(F)F)c1			EC50 [1, 4]: 211 nM; EC50 [2, 5]: 1240 nM
O=c1ccc2cnc3ccc(-c4ccc(F)cc4)cc3c2n1-c1cccc(C(F)(F)F)c1	580	2660	
NC(=O)c1ccc(-c2ccc3ncc4ccc(=O)n(-c5cccc(C(F)(F)F)c5)c4c3c2)cc1	1060	1270	
Nc1ccc(-c2ccc3ncc4ccc(=O)n(-c5cccc(S(N)(=O)=O)c5)c4c3c2)cn1	82	295	
NS(=O)(=O)c1cccc(-c2ccc3ncc4ccc(=O)n(-c5cccc(C(F)(F)F)c5)c4c3c2)c1	128	342	
Nc1cccc(-c2ccc3ncc4[nH]c(=O)n(-c5cccc(C(F)(F)F)c5)c4c3c2)c1			EC50 [1, 4]: 137 nM; EC50 [2, 5]: 531 nM
Nc1ccc(-c2ccc3ncc4ccc(=O)n(-c5ccccc5)c4c3c2)cn1	33	47	
COc1cccc(-n2c(=O)ccc3cnc4ccc(-c5ccc(N)nc5)cc4c32)c1	95	137	
CN(C)C(=O)c1ccc(-c2ccc3ncc4ccc(=O)n(-c5cccc(C(F)(F)F)c5)c4c3c2)cc1	2080	1990	
O=c1ccc2cnc3ccc(-c4cnc5ccccc5c4)cc3c2n1-c1cccc(C(F)(F)F)c1	1180	2270	
NS(=O)(=O)c1ccc(-c2ccc3ncc4ccc(=O)n(-c5cccc(C(F)(F)F)c5)c4c3c2)cc1	384	303	
O=c1ccc2cnc3ccc(-c4cccnc4)cc3c2n1-c1cccc(C(F)(F)F)c1	110	535	
Cn1c(=O)n(-c2cccc(C(F)(F)F)c2)c2c3cc(-c4ccc(N)cc4)ccc3ncc21			EC50 [1, 4]: 16 nM; EC50 [2, 5]: 69 nM
O=c1ccc2cnc3ccc(-c4ccc(-c5ccccc5)cc4)cc3c2n1-c1cccc(C(F)(F)F)c1	15000	19300	
Nc1ccc(-c2ccc3ncc4ccc(=O)n(-c5cccc(C(F)(F)F)c5)c4c3c2)cn1 [drawing 333]	6	18	
Cc1ccc(-c2ccc3ncc4[nH]c(=O)n(-c5cccc(C(F)(F)F)c5)c4c3c2)cn1			EC50 [1, 4]: 59 nM; EC50 [2, 5]: 443 nM
N#Cc1cccc(-c2ccc3ncc4ccc(=O)n(-c5cccc(C(F)(F)F)c5)c4c3c2)c1	283	526	
